Laboratory results reported in patent US5904929A, “Acylated cyclodextrin-containing pharmaceutical composition” (Janssen Pharmaceutica, N.V., priority 1997, dated 1999).

What was measured:
[1] = J. Pharm. Pharmacol. 1994, 46: 714-717; cited from earlier work
[2] = system: cutis of the back of female hairless mice; assay: Cutis irritativeness, histology of back skin of hairless mice (Example 2); type: in vivo; conditions: 16 hours, light microscopy
Procedure: There was stuck 150 mg of TV-β-CyD, in the shape of a circle with a diameter of […], on the back of female hairless mice at the age of around 7 weeks (weight: […]), and 16 hours later, the cutis was extirpated. The extirpated cutis was fixed with 20% neutrally-buffered formalin solution and embedded in paraffin according to a usual manner, and tissue sections were prepared using a microtome. These sections were double stained with haematoxylin and Eosine, and observed by a light microscope. Untreated cutis was used as control. Moreover, a commercially available adhesive tape for patch test was applied on the same mice under the same condition, and, thereafter, the cutis tissue of the applied portion was extirpated for comparison.

[3] = Detaching force of films, probe tack tester (Example 1); type: physicochemical; conditions: films on polyethylene terephthalate; compared with HPC, HPMC and PHEMA; probe tack tester (FIG. 1)
Procedure: Pervaleryl-β-cyclodextrin (TV-β-CyD)-containing absolute ethanol solution (concentration: 150 mg/ml) was added dropwise onto a backing membrane (polyethylene terephthalate film) using a microsyringe, and allowed to stand at 25° C. for 24 hours to evaporate ethanol, whereby films of TV-β-CyD having adhesion were obtained.
The detaching force on the films of TV-β-CyD and on the films derived from various hydrophilic macromolecules (hydroxypropylcellulose (HPC), hydroxypropyl methylcellulose (HPMC) and polyhydroxyethyl methacrylate (PHEMA)) was measured using a probe tack tester (produced by Rigaku Kogyo Co.). The films of hydrophilic macromolecules were prepared as described with respect to TV-β-CyD.

| SMILES | drug release rate, compared with other acylated β-CyDs [1] | peeling of corneum ([2]; 150 mg, compared with commercially available adhesive tape for patch test) | abnormality such as inflammatory cellular infiltration ([2]; other sites (control)) | adhesion (detaching force), in comparison with hydrophilic macromolecules [3] |
| --- | --- | --- | --- | --- |
| CCCC(=O)OC[C@H]1O[C@@H]2O[C@H]3[C@H](OC(=O)CCC)[C@@H](OC(=O)CCC)[C@@H](O[C@H]4[C@H](OC(=O)CCC)[C@@H](OC(=O)CCC)[C@@H](O[C@H]5[C@H](OC(=O)CCC)[C@@H](OC(=O)CCC)[C@@H](O[C@H]6[C@H](OC(=O)CCC)[C@@H](OC(=O)CCC)[C@@H](O[C@H]7[C@H](OC(=O)CCC)[C@@H](OC(=O)CCC)[C@@H](O[C@H]8[C@H](OC(=O)CCC)[C@@H](OC(=O)CCC)[C@@H](O[C@H]1[C@H](OC(=O)CCC)[C@H]2OC(=O)CCC)O[C@@H]8COC(=O)CCC)O[C@@H]7COC(=O)CCC)O[C@@H]6COC(=O)CCC)O[C@@H]5COC(=O)CCC)O[C@@H]4COC(=O)CCC)O[C@@H]3COC(=O)CCC [TB-β-CyD, perbutanoyl-β-cyclodextrin] | remarkably retards the drug release rate |  |  |  |
| CCCCC(=O)OC[C@H]1O[C@@H]2O[C@H]3[C@H](OC(=O)CCCC)[C@@H](OC(=O)CCCC)[C@@H](O[C@H]4[C@H](OC(=O)CCCC)[C@@H](OC(=O)CCCC)[C@@H](O[C@H]5[C@H](OC(=O)CCCC)[C@@H](OC(=O)CCCC)[C@@H](O[C@H]6[C@H](OC(=O)CCCC)[C@@H](OC(=O)CCCC)[C@@H](O[C@H]7[C@H](OC(=O)CCCC)[C@@H](OC(=O)CCCC)[C@@H](O[C@H]8[C@H](OC(=O)CCCC)[C@@H](OC(=O)CCCC)[C@@H](O[C@H]1[C@H](OC(=O)CCCC)[C@H]2OC(=O)CCCC)O[C@@H]8COC(=O)CCCC)O[C@@H]7COC(=O)CCCC)O[C@@H]6COC(=O)CCCC)O[C@@H]5COC(=O)CCCC)O[C@@H]4COC(=O)CCCC)O[C@@H]3COC(=O)CCCC [TV-β-CyD, Pervaleryl-β-cyclodextrin] |  | peeling of corneum in the same degree as in the case of the commercially available adhesive tape | no abnormality such as inflammatory cellular infiltration | strongest in adhesion |
